Key:
[1] = biological target: 5-hydroxytryptamine receptor 2A (Homo sapiens, UniProt P28223); assay: GPCRScan assay: inhibition of 5-HT2A; set-up: radioligand conc. used [nm] 1.2 – 2.4, parental cells HEKT
[2] = system: Tyrosine-protein kinase ABL1 (Homo sapiens), P00519 [H396P]; assay: ABL1 H396P ProQinase selectivity panel; conditions: Compound concentration 1.0 uM
[3] = biological target: RAC-alpha serine/threonine-protein kinase (Homo sapiens) (UniProt P31749); assay: AKT1 ProQinase selectivity panel; conditions: Compound concentration 1.0 uM
[4] = biological target: RAC-beta serine/threonine-protein kinase (Homo sapiens) (UniProt P31751); assay: AKT2 ProQinase selectivity panel; conditions: Compound concentration 1.0 uM
[5] = biological target: Protein-tyrosine kinase 6 (Homo sapiens) (UniProt Q13882); assay: BRK ProQinase selectivity panel; conditions: Compound concentration 1.0 uM
[6] = biological target: Calcium/calmodulin-dependent protein kinase type II subunit beta (Homo sapiens) (UniProt Q13554); assay: CAMK2B ProQinase selectivity panel; conditions: Compound concentration 1.0 uM
[7] = biological target: Calcium/calmodulin-dependent protein kinase type IV (Homo sapiens) (UniProt Q16566); assay: CAMK4 ProQinase selectivity panel; conditions: Compound concentration 1.0 uM
[8] = biological target: CDK8/Cyclin C (Homo sapiens) (UniProt P49336+P24863); assay: CDK8/CycC ProQinase selectivity panel; assay type: protein-complex assay; conditions: Compound concentration 1.0 uM
[9] = biological target: Casein kinase I isoform alpha (Homo sapiens) (UniProt P48729); assay: CK1-alpha1 ProQinase selectivity panel; conditions: Compound concentration 1.0 uM
[10] = biological target: Tyrosine-protein kinase CSK (Homo sapiens) (UniProt P41240); assay: CSK ProQinase selectivity panel; conditions: Compound concentration 1.0 uM
[11] = biological target: Death-associated protein kinase 1 (Homo sapiens) (UniProt P53355); assay: DAPK1 ProQinase selectivity panel; conditions: Compound concentration 1.0 uM
[12] = biological target: Myotonin-protein kinase (Homo sapiens) (UniProt Q09013); assay: DMPK ProQinase selectivity panel; conditions: Compound concentration 1.0 uM
[13] = biological target: Dual specificity tyrosine-phosphorylation-regulated kinase 1A (Homo sapiens) (UniProt Q13627); assay: DYRK1A ProQinase selectivity panel; conditions: Compound concentration 1.0 uM
[14] = biological target: Ephrin type-A receptor 7 (Homo sapiens) (UniProt Q15375); assay: EPHA7 ProQinase selectivity panel; conditions: Compound concentration 1.0 uM
[15] = biological target: Ephrin type-A receptor 8 (Homo sapiens) (UniProt P29322); assay: EPHA8 ProQinase selectivity panel; conditions: Compound concentration 1.0 uM
[16] = biological target: Ephrin type-B receptor 4 (Homo sapiens) (UniProt P54760); assay: EPHB4 ProQinase selectivity panel; conditions: Compound concentration 1.0 uM
[17] = biological target: Tyrosine-protein kinase Fes/Fps (Homo sapiens) (UniProt P07332); assay: FES ProQinase selectivity panel; conditions: Compound concentration 1.0 uM
[18] = system: Receptor-type tyrosine-protein kinase FLT3 (Homo sapiens), P36888 [UNDEFINED MUTATION]; assay: FLT3 ITD ProQinase selectivity panel; conditions: Compound concentration 1.0 uM
[19] = biological target: G protein-coupled receptor kinase 3 (Homo sapiens) (UniProt P35626); assay: GRK3 ProQinase selectivity panel; conditions: Compound concentration 1.0 uM
[20] = biological target: Rhodopsin kinase GRK7 (Homo sapiens) (UniProt Q8WTQ7); assay: GRK7 ProQinase selectivity panel; conditions: Compound concentration 1.0 uM
[21] = biological target: Mitogen-activated protein kinase 9 (Homo sapiens) (UniProt P45984); assay: JNK2 ProQinase selectivity panel; conditions: Compound concentration 1.0 uM
[22] = system: Leucine-rich repeat serine/threonine-protein kinase 2 (Homo sapiens), Q5S007 [I2020T]; assay: LRRK2 I2020T ProQinase selectivity panel; conditions: Compound concentration 1.0 uM
[23] = biological target: Mitogen-activated protein kinase kinase kinase 10 (Homo sapiens) (UniProt Q02779); assay: MAP3K10 ProQinase selectivity panel; conditions: Compound concentration 1.0 uM
[24] = biological target: Mitogen-activated protein kinase kinase kinase 7 (Homo sapiens) (UniProt O43318); assay: MAP3K7/MAP3K7IP1 ProQinase selectivity panel; conditions: Compound concentration 1.0 uM
[25] = biological target: Mitogen-activated protein kinase kinase kinase kinase 2 (Homo sapiens) (UniProt Q12851); assay: MAP4K2 ProQinase selectivity panel; conditions: Compound concentration 1.0 uM
[26] = biological target: Mitogen-activated protein kinase kinase kinase 2 (Homo sapiens) (UniProt Q9Y2U5); assay: MEKK2 ProQinase selectivity panel; conditions: Compound concentration 1.0 uM
[27] = biological target: Mitogen-activated protein kinase kinase kinase 3 (Homo sapiens) (UniProt Q99759); assay: MEKK3 ProQinase selectivity panel; conditions: Compound concentration 1.0 uM
[28] = biological target: Mitogen-activated protein kinase 12 (Homo sapiens) (UniProt P53778); assay: p38-gamma ProQinase selectivity panel; conditions: Compound concentration 1.0 uM
[29] = biological target: Serine/threonine-protein kinase PAK 1 (Homo sapiens) (UniProt Q13153); assay: PAK1 ProQinase selectivity panel; conditions: Compound concentration 1.0 uM
[30] = biological target: Serine/threonine-protein kinase PAK 2 (Homo sapiens) (UniProt Q13177); assay: PAK2 ProQinase selectivity panel; conditions: Compound concentration 1.0 uM
[31] = biological target: Lymphokine-activated killer T-cell-originated protein kinase (Homo sapiens) (UniProt Q96KB5); assay: PBK ProQinase selectivity panel; conditions: Compound concentration 1.0 uM
[32] = biological target: Platelet-derived growth factor receptor alpha (Homo sapiens) (UniProt P16234); assay: PDGFR-alpha wt ProQinase selectivity panel; conditions: Compound concentration 1.0 uM
[33] = biological target: Serine/threonine-protein kinase pim-3 (Homo sapiens) (UniProt Q86V86); assay: PIM3 ProQinase selectivity panel; conditions: Compound concentration 1.0 uM
[34] = biological target: cAMP-dependent protein kinase catalytic subunit alpha (Homo sapiens) (UniProt P17612); assay: PKA ProQinase selectivity panel; conditions: Compound concentration 1.0 uM
[35] = biological target: Protein kinase C delta type (Homo sapiens) (UniProt Q05655); assay: PKC-delta ProQinase selectivity panel; conditions: Compound concentration 1.0 uM
[36] = biological target: Protein kinase C zeta type (Homo sapiens) (UniProt Q05513); assay: PKC-zeta ProQinase selectivity panel; conditions: Compound concentration 1.0 uM
[37] = biological target: Ribosomal protein S6 kinase alpha-4 (Homo sapiens) (UniProt O75676); assay: RPS6KA4 ProQinase selectivity panel; conditions: Compound concentration 1.0 uM
[38] = biological target: Serine/threonine-protein kinase PLK4 (Homo sapiens) (UniProt O00444); assay: SAK ProQinase selectivity panel; conditions: Compound concentration 1.0 uM
[39] = biological target: Serine/threonine-protein kinase Sgk1 (Homo sapiens) (UniProt O00141); assay: SGK1 ProQinase selectivity panel; conditions: Compound concentration 1.0 uM
[40] = biological target: STE20-like serine/threonine-protein kinase (Homo sapiens) (UniProt Q9H2G2); assay: SLK ProQinase selectivity panel; conditions: Compound concentration 1.0 uM
[41] = biological target: Serine/threonine-protein kinase WNK3 (Homo sapiens) (UniProt Q9BYP7); assay: WNK3 ProQinase selectivity panel; conditions: Compound concentration 1.0 uM
[42] = biological target: Kappa-type opioid receptor (Homo sapiens) (UniProt P41145); conditions: Compound concentration 10.0 uM
[43] = biological target: Histamine H3 receptor (Homo sapiens) (UniProt Q9Y5N1); conditions: Compound concentration 10.0 uM
[44] = biological target: Alpha-1A adrenergic receptor (Homo sapiens) (UniProt P35348); conditions: Compound concentration 10.0 uM
[45] = biological target: Alpha-1B adrenergic receptor (Homo sapiens) (UniProt P35368); conditions: Compound concentration 10.0 uM
[46] = biological target: Alpha-2A adrenergic receptor (Homo sapiens) (UniProt P08913); conditions: Compound concentration 10.0 uM
[47] = biological target: Alpha-2B adrenergic receptor (Homo sapiens) (UniProt P18089); conditions: Compound concentration 10.0 uM
[48] = biological target: Beta-2 adrenergic receptor (Homo sapiens) (UniProt P07550); conditions: Compound concentration 10.0 uM
[49] = biological target: Sigma intracellular receptor 2 (Homo sapiens, UniProt Q5BJF2); conditions: Compound concentration 10.0 uM

Sequence of 5-hydroxytryptamine receptor 2A (P28223 whole entry): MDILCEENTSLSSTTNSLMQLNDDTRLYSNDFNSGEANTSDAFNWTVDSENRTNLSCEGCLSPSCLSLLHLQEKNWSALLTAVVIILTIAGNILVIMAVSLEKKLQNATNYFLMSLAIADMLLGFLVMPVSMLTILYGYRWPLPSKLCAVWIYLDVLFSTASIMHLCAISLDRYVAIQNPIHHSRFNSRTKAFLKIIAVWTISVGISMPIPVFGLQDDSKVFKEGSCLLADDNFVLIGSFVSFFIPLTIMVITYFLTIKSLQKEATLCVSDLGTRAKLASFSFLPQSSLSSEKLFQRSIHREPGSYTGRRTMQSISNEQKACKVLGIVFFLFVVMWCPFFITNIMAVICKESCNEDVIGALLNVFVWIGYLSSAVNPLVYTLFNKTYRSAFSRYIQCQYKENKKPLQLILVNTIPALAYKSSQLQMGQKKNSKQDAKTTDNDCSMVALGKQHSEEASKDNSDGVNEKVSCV
Sequence of Serine/threonine-protein kinase PAK 1 (Homo sapiens) (Q13153 whole entry): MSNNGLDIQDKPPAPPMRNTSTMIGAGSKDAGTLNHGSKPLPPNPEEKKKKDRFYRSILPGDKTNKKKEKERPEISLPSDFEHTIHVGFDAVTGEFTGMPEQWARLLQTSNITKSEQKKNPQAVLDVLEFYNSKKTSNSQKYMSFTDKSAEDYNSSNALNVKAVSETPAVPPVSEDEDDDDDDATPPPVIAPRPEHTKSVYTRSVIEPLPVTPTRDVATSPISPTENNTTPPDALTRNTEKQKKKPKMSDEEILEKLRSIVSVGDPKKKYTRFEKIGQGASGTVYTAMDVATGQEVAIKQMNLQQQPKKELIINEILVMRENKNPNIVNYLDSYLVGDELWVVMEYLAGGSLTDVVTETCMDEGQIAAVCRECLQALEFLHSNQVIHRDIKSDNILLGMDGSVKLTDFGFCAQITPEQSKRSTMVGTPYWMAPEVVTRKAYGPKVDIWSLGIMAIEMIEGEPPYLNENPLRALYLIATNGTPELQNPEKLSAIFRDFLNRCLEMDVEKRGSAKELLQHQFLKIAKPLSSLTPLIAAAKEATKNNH
Sequence of Mitogen-activated protein kinase 9 (Homo sapiens) (P45984 whole entry, looked up): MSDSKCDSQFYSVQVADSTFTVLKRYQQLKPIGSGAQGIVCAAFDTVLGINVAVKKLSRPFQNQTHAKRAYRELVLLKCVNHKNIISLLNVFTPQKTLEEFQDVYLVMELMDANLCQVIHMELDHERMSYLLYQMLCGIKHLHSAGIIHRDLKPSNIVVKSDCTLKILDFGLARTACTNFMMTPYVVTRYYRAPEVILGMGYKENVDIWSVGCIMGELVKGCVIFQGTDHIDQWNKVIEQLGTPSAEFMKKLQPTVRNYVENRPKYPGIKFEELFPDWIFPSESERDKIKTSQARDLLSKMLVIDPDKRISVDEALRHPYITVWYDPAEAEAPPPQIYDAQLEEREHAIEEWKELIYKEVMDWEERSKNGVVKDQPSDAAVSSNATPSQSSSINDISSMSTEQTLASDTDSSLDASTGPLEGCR
Sequence of Histamine H3 receptor (Homo sapiens) (Q9Y5N1 whole entry): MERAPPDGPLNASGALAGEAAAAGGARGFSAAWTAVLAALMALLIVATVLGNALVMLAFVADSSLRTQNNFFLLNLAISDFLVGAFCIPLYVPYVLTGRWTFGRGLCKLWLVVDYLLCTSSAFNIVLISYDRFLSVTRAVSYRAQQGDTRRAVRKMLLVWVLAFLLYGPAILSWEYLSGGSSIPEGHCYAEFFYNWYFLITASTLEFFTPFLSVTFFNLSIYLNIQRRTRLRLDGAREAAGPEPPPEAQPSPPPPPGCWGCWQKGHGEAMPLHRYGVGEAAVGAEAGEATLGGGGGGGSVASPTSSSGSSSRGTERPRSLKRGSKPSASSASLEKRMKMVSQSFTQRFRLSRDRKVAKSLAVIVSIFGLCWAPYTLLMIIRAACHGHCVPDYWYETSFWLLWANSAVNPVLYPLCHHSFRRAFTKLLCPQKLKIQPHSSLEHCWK
Sequence of Calcium/calmodulin-dependent protein kinase type II subunit beta (Homo sapiens) (Q13554 whole entry): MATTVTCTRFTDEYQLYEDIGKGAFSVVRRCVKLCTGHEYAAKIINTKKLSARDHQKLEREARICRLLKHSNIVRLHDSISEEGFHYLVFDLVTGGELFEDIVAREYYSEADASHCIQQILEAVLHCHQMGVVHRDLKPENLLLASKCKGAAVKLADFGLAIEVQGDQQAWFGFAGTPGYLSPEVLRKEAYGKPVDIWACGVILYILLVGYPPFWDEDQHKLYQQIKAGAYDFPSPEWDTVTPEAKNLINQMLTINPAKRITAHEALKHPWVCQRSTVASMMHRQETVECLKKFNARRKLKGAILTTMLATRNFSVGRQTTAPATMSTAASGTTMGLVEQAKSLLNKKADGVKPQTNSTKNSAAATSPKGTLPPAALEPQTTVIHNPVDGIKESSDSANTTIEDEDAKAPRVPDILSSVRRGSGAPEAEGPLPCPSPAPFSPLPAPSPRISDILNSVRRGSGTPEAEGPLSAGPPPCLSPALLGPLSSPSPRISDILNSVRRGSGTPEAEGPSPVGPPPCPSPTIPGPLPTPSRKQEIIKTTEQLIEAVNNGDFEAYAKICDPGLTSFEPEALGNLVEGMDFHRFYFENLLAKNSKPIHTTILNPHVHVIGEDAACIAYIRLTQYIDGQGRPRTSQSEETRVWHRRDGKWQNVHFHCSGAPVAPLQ
Sequence of Ephrin type-A receptor 8 (Homo sapiens) (P29322 whole entry): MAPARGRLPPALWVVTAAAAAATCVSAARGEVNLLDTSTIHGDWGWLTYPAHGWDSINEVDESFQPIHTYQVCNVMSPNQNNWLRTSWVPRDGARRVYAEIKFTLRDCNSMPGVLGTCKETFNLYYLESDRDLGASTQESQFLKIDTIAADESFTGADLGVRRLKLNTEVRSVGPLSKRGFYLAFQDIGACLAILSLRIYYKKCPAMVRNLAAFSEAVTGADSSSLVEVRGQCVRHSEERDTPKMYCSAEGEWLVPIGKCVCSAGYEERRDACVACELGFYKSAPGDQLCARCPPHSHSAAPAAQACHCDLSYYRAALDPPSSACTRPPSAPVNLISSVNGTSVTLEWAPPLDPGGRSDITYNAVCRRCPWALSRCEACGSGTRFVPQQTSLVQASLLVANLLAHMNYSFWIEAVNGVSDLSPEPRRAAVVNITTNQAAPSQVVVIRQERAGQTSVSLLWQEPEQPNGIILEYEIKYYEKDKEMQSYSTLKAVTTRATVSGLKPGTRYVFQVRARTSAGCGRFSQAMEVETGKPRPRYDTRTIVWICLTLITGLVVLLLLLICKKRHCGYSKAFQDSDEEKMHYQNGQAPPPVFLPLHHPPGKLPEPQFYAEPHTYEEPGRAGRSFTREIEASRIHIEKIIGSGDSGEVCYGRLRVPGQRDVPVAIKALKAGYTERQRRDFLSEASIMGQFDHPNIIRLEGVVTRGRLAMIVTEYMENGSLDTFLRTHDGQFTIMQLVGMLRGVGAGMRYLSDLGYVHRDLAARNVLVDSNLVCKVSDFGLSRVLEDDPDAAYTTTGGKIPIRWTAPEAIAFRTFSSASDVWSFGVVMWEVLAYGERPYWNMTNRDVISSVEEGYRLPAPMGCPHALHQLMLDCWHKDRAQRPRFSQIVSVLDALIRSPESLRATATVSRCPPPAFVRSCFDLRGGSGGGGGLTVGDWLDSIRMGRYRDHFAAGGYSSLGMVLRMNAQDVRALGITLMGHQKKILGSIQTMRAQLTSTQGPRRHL
Sequence of Protein-tyrosine kinase 6 (Homo sapiens) (Q13882 whole entry, looked up): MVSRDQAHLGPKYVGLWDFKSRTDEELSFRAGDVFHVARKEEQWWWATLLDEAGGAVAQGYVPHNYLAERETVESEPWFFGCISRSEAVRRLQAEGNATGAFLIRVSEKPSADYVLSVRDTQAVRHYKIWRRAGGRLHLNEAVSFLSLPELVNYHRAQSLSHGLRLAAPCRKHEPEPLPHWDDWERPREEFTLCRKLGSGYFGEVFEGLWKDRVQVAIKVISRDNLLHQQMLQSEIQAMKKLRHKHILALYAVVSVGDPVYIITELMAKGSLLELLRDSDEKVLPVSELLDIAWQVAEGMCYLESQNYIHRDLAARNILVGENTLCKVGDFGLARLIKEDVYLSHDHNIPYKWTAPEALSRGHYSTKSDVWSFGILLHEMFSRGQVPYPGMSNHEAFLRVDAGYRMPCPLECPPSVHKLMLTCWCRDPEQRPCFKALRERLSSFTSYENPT
Sequence of G protein-coupled receptor kinase 3 (Homo sapiens) (P35626 whole entry): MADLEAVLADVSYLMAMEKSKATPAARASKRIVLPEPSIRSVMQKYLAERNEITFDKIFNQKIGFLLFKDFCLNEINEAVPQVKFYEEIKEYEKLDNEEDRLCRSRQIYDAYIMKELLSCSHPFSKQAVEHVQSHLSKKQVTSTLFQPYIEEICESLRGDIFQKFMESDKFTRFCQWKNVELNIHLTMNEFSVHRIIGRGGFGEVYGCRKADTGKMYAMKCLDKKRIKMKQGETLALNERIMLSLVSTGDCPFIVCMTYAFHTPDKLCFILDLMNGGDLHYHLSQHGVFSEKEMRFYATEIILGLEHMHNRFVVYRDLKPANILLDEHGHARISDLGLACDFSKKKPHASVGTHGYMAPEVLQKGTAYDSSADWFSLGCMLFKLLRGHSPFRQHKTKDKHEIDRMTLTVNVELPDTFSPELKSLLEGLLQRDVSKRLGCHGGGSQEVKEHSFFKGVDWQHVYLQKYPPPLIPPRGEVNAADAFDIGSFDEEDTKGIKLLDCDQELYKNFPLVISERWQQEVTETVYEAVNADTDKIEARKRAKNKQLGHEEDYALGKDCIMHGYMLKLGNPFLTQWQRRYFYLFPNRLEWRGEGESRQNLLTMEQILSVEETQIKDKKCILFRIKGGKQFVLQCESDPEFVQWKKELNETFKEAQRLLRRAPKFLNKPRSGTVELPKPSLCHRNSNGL
Sequence of Lymphokine-activated killer T-cell-originated protein kinase (Homo sapiens) (Q96KB5 whole entry): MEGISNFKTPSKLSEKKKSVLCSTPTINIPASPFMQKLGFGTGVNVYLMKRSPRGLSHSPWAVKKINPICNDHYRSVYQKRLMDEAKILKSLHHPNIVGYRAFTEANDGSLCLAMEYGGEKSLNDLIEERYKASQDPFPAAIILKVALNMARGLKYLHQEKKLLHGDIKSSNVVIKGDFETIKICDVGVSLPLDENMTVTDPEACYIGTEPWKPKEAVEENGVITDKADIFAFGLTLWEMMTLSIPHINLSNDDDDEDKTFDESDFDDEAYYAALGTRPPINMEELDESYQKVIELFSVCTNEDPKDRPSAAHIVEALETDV

Ki ([1]; read-out: Ki): 3.71 µM | Ki ([1]; read-out: pKi (converted)): 3.39 µM | % Residual activity with Skepinone-L [2]: 99% | % Residual activity with Skepinone-L [3]: 102% | % Residual activity with Skepinone-L [4]: 121% | % Residual activity with Skepinone-L [5]: 84% | % Residual activity with Skepinone-L [6]: 86% | % Residual activity with Skepinone-L [7]: 111% | % Residual activity with Skepinone-L [8]: 105% | % Residual activity with Skepinone-L [9]: 97% | % Residual activity with Skepinone-L [10]: 111% | % Residual activity with Skepinone-L [12]: 99% | % Residual activity with Skepinone-L [13]: 96% | % Residual activity with Skepinone-L [14]: 109% | % Residual activity with Skepinone-L [15]: 95% | % Residual activity with Skepinone-L [16]: 128% | % Residual activity with Skepinone-L [17]: 121% | % Residual activity with Skepinone-L [18]: 101% | % Residual activity with Skepinone-L [19]: 95% | % Residual activity with Skepinone-L [20]: 107% | % Residual activity with Skepinone-L [21]: 58% | % Residual activity with Skepinone-L [22]: 94% | % Residual activity with Skepinone-L [23]: 101% | % Residual activity with Skepinone-L [24]: 80% | % Residual activity with Skepinone-L [25]: 89% | % Residual activity with Skepinone-L [26]: 89% | % Residual activity with Skepinone-L [27]: 96% | % Residual activity with Skepinone-L [28]: 102% | % Residual activity with Skepinone-L [29]: 100% | % Residual activity with Skepinone-L [30]: 83% | % Residual activity with Skepinone-L [32]: 91% | % Residual activity with Skepinone-L [33]: 78% | % Residual activity with Skepinone-L [34]: 94% | % Residual activity with Skepinone-L [35]: 104% | % Residual activity with Skepinone-L [36]: 109% | % Residual activity with Skepinone-L [37]: 107% | % Residual activity with Skepinone-L [38]: 62% | % Residual activity with Skepinone-L [39]: 90% | % Residual activity with Skepinone-L [40]: 39% | % Residual activity with Skepinone-L [41]: 100% | inhibition [42]: -4% | inhibition [43]: 10.9% | inhibition [44]: 21.8% | inhibition [45]: 5.52% | inhibition [46]: 39.6% | inhibition [47]: 4.37% | inhibition [48]: 2.93% | inhibition [49]: 53.1%
SMILES: O=C1c2ccc(Nc3ccc(F)cc3F)cc2CCc2ccc(OC[C@H](O)CO)cc21 [Skepinone-L]
% Residual activity with Skepinone-L [11]: 86% | % Residual activity with Skepinone-L [31]: 113%
